Measured values as given in patent publication US5336763A, “Trisazo dye and dye composition containing the same” (Orient Chemical Industries, Ltd., priority 1992, dated 1994).
Where two headings read alike, the source gives them in different places.

Test system: strains TA98
Type: cell-based
Details: for AMES evaluation: strains TA98
Experimental: Regarding various specimen solutions respectively containing trisazo dyes obtained in Examples 1 to 11 to the present invention and dyes of Comparative Examples 1 to 3, the number of mutant colonies was determined using strains TA98. 2. When the ratio is less than 2, it is "negative" and, when the ratio is more than 2, it is "positive", and the results are shown in Table. 1.

Structure (SMILES)	Ames test: ratio of number of colonies to control (20 μg/plate, with S-9)	Ames test: ratio of number of colonies to control (20 μg/plate, without S-9)	Ames test: ratio of number of colonies to control (78 μg/plate, with S-9)	Ames test: ratio of number of colonies to control (78 μg/plate, without S-9)	Ames test: ratio of number of colonies to control (313 μg/plate, with S-9)	Ames test: ratio of number of colonies to control (313 μg/plate, without S-9)	Ames test: ratio of number of colonies to control (1250 μg/plate, with S-9)	Ames test: ratio of number of colonies to control (1250 μg/plate, without S-9)	Ames test: ratio of number of colonies to control (5000 μg/plate, with S-9)	Ames test: ratio of number of colonies to control (5000 μg/plate, without S-9)	AMES evaluation
Cc1ccccc1N=Nc1c(S(=O)(=O)O)cc2cc(S(=O)(=O)O)c(N=Nc3ccc(Oc4ccc(Oc5ccc(N=Nc6ccc(O)cc6O)cc5)cc4)cc3)c(N)c2c1O [Ex. 7]	0.94	0.95	0.89	1.00	1.00	0.80	1.05	0.80	1.05	1.00	Negative (When the ratio is less than 2, it is "negative")
Nc1ccc(N=Nc2ccc(Oc3cccc(Oc4ccc(N=Nc5cc(S(=O)(=O)O)c6cc(S(=O)(=O)O)c(N=Nc7ccccc7)c(O)c6c5N)cc4)c3)cc2)c(O)c1 [Ex. 9]	1.05	0.85	1.00	0.65	1.16	0.75	1.00	0.60	0.53	1.15	Negative (When the ratio is less than 2, it is "negative")
Nc1ccc(N=Nc2ccc(Oc3ccc(Oc4ccc(N=Nc5c(S(=O)(=O)O)cc6cc(S(=O)(=O)O)c(N=Nc7ccc(S(=O)(=O)O)cc7)c(O)c6c5N)cc4)cc3)cc2)c(O)c1 [Ex. 8]	0.94	1.05	0.92	1.08	0.92	0.93	0.93	1.03	1.03	1.12	Negative (When the ratio is less than 2, it is "negative")
CCC(C)c1ccc(N=Nc2c(S(=O)(=O)O)cc3cc(S(=O)(=O)O)c(N=Nc4ccc(Oc5cccc(Oc6ccc(N=Nc7ccc(O)cc7O)cc6)c5)cc4)c(N)c3c2O)cc1 (stereo not shown) [Ex. 3]	1.32	0.76	1.79	0.86	1.59	0.86	0.76	1.10	0.56	0.95	Negative (When the ratio is less than 2, it is "negative")
Nc1ccc(N=Nc2ccc(Oc3cccc(Oc4ccc(N=Nc5c(S(=O)(=O)O)cc6cc(S(=O)(=O)O)c(N=Nc7ccccc7)c(O)c6c5N)cc4)c3)cc2)c(O)c1 [Ex. 1]	1.13	0.76	0.94	0.86	1.06	0.86	0.53	0.76	0.59	0.71	Negative (When the ratio is less than 2, it is "negative")
Nc1c(N=Nc2ccc(Oc3cccc(Oc4ccc(N=Nc5ccc(O)cc5O)cc4)c3)cc2)c(S(=O)(=O)O)cc2cc(S(=O)(=O)O)c(N=Nc3ccccc3)c(O)c12 [Ex. 2]	1.34	1.07	1.19	1.20	1.39	1.02	1.28	1.16	1.27	1.28	Negative (When the ratio is less than 2, it is "negative")
Nc1ccc(N=Nc2ccc(S(=O)(=O)c3ccc(N=Nc4c(S(=O)(=O)O)cc5cc(S(=O)(=O)O)c(N=Nc6ccccc6)c(O)c5c4N)cc3)cc2)c(O)c1 [compound 2, reference compound]	5.26	1.10	26.3	1.52	9.11	1.29	1.23	1.38	1.61	3.38	Positive (when the ratio is more than 2, it is "positive")
CCC(C)c1ccc(N=Nc2c(S(=O)(=O)O)cc3cc(S(=O)(=O)O)c(N=Nc4ccc(Oc5ccc(Oc6ccc(N=Nc7ccc(O)cc7O)cc6)cc5)cc4)c(N)c3c2O)cc1 (stereo not shown) [Ex. 6]	1.01	1.01	1.00	1.04	0.98	1.16	0.84	0.97	0.84	0.91	Negative (When the ratio is less than 2, it is "negative")
Nc1ccc(N=Nc2ccc(Oc3ccc(Oc4ccc(N=Nc5c(S(=O)(=O)O)cc6cc(S(=O)(=O)O)c(N=Nc7ccccc7)c(O)c6c5N)cc4)cc3)cc2)c(O)c1 [Ex. 4]	1.04	0.88	1.23	0.79	0.99	0.96	0.88	1.15	0.90	0.92	Negative (When the ratio is less than 2, it is "negative")
Nc1ccc2c(O)c(N=Nc3ccccc3)c(S(=O)(=O)O)cc2c1N=Nc1ccc(Oc2ccc(Oc3ccc(N=Nc4ccc(O)cc4O)cc3)cc2)cc1 [Ex. 11]	1.25	0.96	1.64	1.00	1.34	0.81	0.64	1.04	1.07	1.35	Negative (When the ratio is less than 2, it is "negative")
Nc1c(N=Nc2ccc(Oc3ccc(Oc4ccc(N=Nc5ccc(O)cc5O)cc4)cc3)cc2)c(S(=O)(=O)O)cc2cc(S(=O)(=O)O)c(N=Nc3ccccc3)c(O)c12 [Ex. 5]	0.93	0.89	1.04	0.95	0.86	0.63	1.04	0.79	0.57	0.68	Negative (When the ratio is less than 2, it is "negative")
